Columns and labels:
CDK2/Cyclin A = CDK2/Cyclin A (Homo sapiens, UniProt P24941); assay: Inhibition of CDK2/Cyclin A Retinoblastoma Kinase Activity; assay type: biochemical; settings: 0.03 μM compound, Table 4
Procedure, shortened: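 CDK2 (10 or 19 nM), insect-cell expressed, gel-filtration purified with truncated cyclin A; Rb fragment substrate; 25 μM ATP; 10 mM HEPES pH 7.4, 10 mM MgCl2; 30° C, 60 or 75 min; EDTA stop; phosphocellulose/nitrocellulose capture, phosphorimager. % inhibition vs DMSO control, no-enzyme background subtracted.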

[1] = target: human CDK4 and genetically truncated (1-264) cyclin D3 (Homo sapiens, UniProt P11802); assay: Inhibition of CDK4/Cyclin D Retinoblastoma Kinase Activity; assay type: biochemical; settings: 0.03 μM compound, Table 4
Procedure, shortened: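 The enzyme complex (5 nM), expressed in co-infected insect cells, was incubated with recombinant Rb fragment, 25 μM radiolabelled ATP and 2% DMSO at 30 °C. Reactions were stopped with EDTA after 20 minutes, or 60 minutes for tight-binding inhibitors. Apparent Ki values came from competitive inhibition fits.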

HCT-116 cell line = assay: Inhibition of cell growth, tetrazolium salt (MTT) assay; assay type: cell-based; settings: HCT-116, Table 4; for HCT-116 % Inhibition at 0.1 μM: 0.1 μM compound; for HCT-116 % Inhibition at 0.25 μM: 0.25 μM compound
Procedure, shortened: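 First, cells were seeded in McCoy's 5A medium and held 4 h. Next, inhibitor concentrations in 0.5% (v/v) DMSO were applied for three to five days at 37° C, 5% CO2. Finally, after 4 h with 0.2 mg/mL MTT and medium removal, solubilized formazan was measured at 540 nm.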

Chain of human CDK4 and genetically truncated (1-264) cyclin D3 (P11802 whole entry, the tested form may be a part): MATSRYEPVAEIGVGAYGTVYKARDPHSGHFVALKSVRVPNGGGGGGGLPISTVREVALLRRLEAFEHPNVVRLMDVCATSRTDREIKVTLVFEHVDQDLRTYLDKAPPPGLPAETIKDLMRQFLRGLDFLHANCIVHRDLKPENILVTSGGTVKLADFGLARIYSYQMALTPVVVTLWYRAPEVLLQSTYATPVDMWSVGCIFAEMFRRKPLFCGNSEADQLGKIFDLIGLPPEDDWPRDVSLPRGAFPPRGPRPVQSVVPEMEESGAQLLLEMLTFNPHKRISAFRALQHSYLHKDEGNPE
Chain of human CDK4 and genetically truncated (1-264) cyclin D3 (P30281 1-264 partner): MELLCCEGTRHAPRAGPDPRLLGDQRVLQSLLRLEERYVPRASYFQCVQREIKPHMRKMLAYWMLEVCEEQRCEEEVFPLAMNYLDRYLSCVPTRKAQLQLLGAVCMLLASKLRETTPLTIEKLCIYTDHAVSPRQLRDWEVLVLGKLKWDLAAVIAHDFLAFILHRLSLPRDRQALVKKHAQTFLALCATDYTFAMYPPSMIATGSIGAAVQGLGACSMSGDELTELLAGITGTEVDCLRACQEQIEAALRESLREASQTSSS

SMILES	CDK2 % Inhibition at 0.03 μM (CDK2/Cyclin A)	CDK4 % Inhibition at 0.03 μM [1]	CDK2 % Inhibition at 0.03 μM (CDK2/Cyclin A; 0.03 µM)	CDK4 % Inhibition at 0.03 μM ([1]; 0.03 µM)	HCT-116 % Inhibition at 0.1 μM (HCT-116 cell line)	HCT-116 % Inhibition at 0.25 μM (HCT-116 cell line)	HCT-116 % Inhibition at 0.1 μM (HCT-116 cell line; 0.1 µM)	HCT-116 % Inhibition at 0.25 μM (HCT-116 cell line; 0.25 µM)
CC(C)=CC(=O)N1CCC(Nc2nc(N)c(C(=O)c3c(F)cccc3F)s2)CC1 [Example Q44]	−19%	17%	–	–	0%	30%	–	–
C/C=C/C(=O)N1CCC(Nc2nc(N)c(C(=O)c3c(F)cccc3F)s2)CC1 [Example Q46]	−9%	25%	–	–	0%	27%	–	–
CCOC(=O)CC(=O)N1CCC(Nc2nc(N)c(C(=O)c3c(F)cccc3F)s2)CC1 [Example Q47]	−13%	9%	–	–	0%	25%	–	–
CCOC(=O)CCC(=O)N1CCC(Nc2nc(N)c(C(=O)c3c(F)cccc3F)s2)CC1 [Example Q50]	24%	42%	–	–	7%	39%	–	–
Nc1nc(NC2CCN(C(=O)C(Cl)(c3ccccc3)c3ccccc3)CC2)sc1C(=O)c1c(F)cccc1F [Example Q51]	4%	22%	–	–	0%	34%	–	–
Nc1nc(NC2CCN(C(=O)C3CC3)CC2)sc1C(=O)c1c(F)cccc1F [Example Q54]	−2%	18%	–	–	0%	35%	–	–
Nc1nc(NC2CCN(C(=O)C3CCC3)CC2)sc1C(=O)c1c(F)cccc1F [Example Q56]	12%	14%	–	–	0%	35%	–	–
Nc1nc(NC2CCN(C(=O)C3CCCC3)CC2)sc1C(=O)c1c(F)cccc1F [Example Q57]	32%	40%	–	–	0%	32%	–	–
Nc1nc(NC2CCN(C(=O)CCC3CCCC3)CC2)sc1C(=O)c1c(F)cccc1F [Example Q58]	29%	53%	–	–	0%	25%	–	–
Nc1nc(NC2CCN(C(=O)C3CCCCC3)CC2)sc1C(=O)c1c(F)cccc1F [Example Q59]	10%	14%	–	–	0%	30%	–	–
N#Cc1ccc(C(=O)N2CCC(Nc3nc(N)c(C(=O)c4c(F)cccc4F)s3)CC2)cc1 [Example Q60]	37%	67%	–	–	0%	37%	–	–
Nc1nc(NC2CCN(C(=O)c3cccc4ccccc34)CC2)sc1C(=O)c1c(F)cccc1F [Example Q62]	33%	49%	–	–	12%	53%	–	–
Nc1nc(NC2CCN(C(=O)c3ccc4ccccc4c3)CC2)sc1C(=O)c1c(F)cccc1F [Example Q63]	39%	57%	–	–	5%	25%	–	–
Nc1nc(NC2CCN(C(=O)c3ccc4c(c3)C(=O)OC4=O)CC2)sc1C(=O)c1c(F)cccc1F [Example Q66]	7%	29%	–	–	7%	34%	–	–
Nc1nc(NC2CCN(C(=O)c3cnc4ccccc4n3)CC2)sc1C(=O)c1c(F)cccc1F [Example Q67]	13%	50%	–	–	9%	30%	–	–
Nc1nc(NC2CCN(C(=O)c3ccccc3[N+](=O)[O-])CC2)sc1C(=O)c1c(F)cccc1F [Example Q68]	41%	51%	–	–	4%	33%	–	–
Nc1nc(NC2CCN(C(=O)c3cccc([N+](=O)[O-])c3)CC2)sc1C(=O)c1c(F)cccc1F [Example Q69]	54%	80%	–	–	1%	24%	–	–
Nc1nc(NC2CCN(C(=O)c3cc([N+](=O)[O-])cc([N+](=O)[O-])c3)CC2)sc1C(=O)c1c(F)cccc1F [Example Q70]	19%	38%	–	–	5%	26%	–	–
Nc1nc(NC2CCN(C(=O)c3ccc([N+](=O)[O-])cc3)CC2)sc1C(=O)c1c(F)cccc1F [Example Q71]	28%	61%	–	–	2%	30%	–	–
Nc1nc(NC2CCN(C(=O)c3ccc(F)c(F)c3)CC2)sc1C(=O)c1c(F)cccc1F [Example Q73]	52%	78%	–	–	3%	33%	–	–
Nc1nc(NC2CCN(C(=O)c3cccc4c3-c3ccccc3C4=O)CC2)sc1C(=O)c1c(F)cccc1F [Example Q74]	2%	19%	–	–	3%	35%	–	–
N#Cc1cccc(C(=O)N2CCC(Nc3nc(N)c(C(=O)c4c(F)cccc4F)s3)CC2)c1 [Example Q77]	44%	72%	–	–	8%	33%	–	–

Further lines, with some results ahead:

CDK2 % Inhibition at 0.03 μM (CDK2/Cyclin A)	CDK4 % Inhibition at 0.03 μM [1]	CDK2 % Inhibition at 0.03 μM (CDK2/Cyclin A; 0.03 µM)	CDK4 % Inhibition at 0.03 μM ([1]; 0.03 µM)	SMILES	HCT-116 % Inhibition at 0.1 μM (HCT-116 cell line)	HCT-116 % Inhibition at 0.25 μM (HCT-116 cell line)	HCT-116 % Inhibition at 0.1 μM (HCT-116 cell line; 0.1 µM)	HCT-116 % Inhibition at 0.25 μM (HCT-116 cell line; 0.25 µM)
21%	47%	–	–	Nc1nc(NC2CCN(C(=O)/C=C/c3ccccc3)CC2)sc1C(=O)c1c(F)cccc1F [Example Q45]	0%	31%	–	–
5%	48%	–	–	Nc1nc(NC2CCN(C(=O)CCc3ccccc3)CC2)sc1C(=O)c1c(F)cccc1F [Example Q48]	0%	19%	–	–
16%	24%	–	–	COC(=O)CCC(=O)N1CCC(Nc2nc(N)c(C(=O)c3c(F)cccc3F)s2)CC1 [Example Q49]	0%	28%	–	–
24%	53%	–	–	Nc1nc(NC2CCN(C(=O)c3ccccc3I)CC2)sc1C(=O)c1c(F)cccc1F [Example Q52]	0%	24%	–	–
60%	83%	–	–	Nc1nc(NC2CCN(C(=O)c3ccc(I)cc3)CC2)sc1C(=O)c1c(F)cccc1F [Example Q53]	0%	22%	–	–
–	–	41%	49%	Nc1nc(NC2CCN(C(=O)c3cccs3)CC2)sc1C(=O)c1c(F)cccc1F [Example Q61]	–	–	0%	34%
–	–	45%	48%	Nc1nc(NC2CCN(C(=O)c3cccs3)CC2)sc1C(=O)c1c(F)cccc1F [Example Q64]	–	–	7%	25%
39%	31%	–	–	Nc1nc(NC2CCN(C(=O)Cc3cccs3)CC2)sc1C(=O)c1c(F)cccc1F [Example Q65]	3%	27%	–	–
18%	43%	–	–	COc1ccc(CC(=O)N2CCC(Nc3nc(N)c(C(=O)c4c(F)cccc4F)s3)CC2)cc1OC [Example Q72]	8%	29%	–	–
9%	20%	–	–	Nc1nc(NC2CCN(C(=O)COCc3ccccc3)CC2)sc1C(=O)c1c(F)cccc1F [Example Q75]	5%	39%	–	–
27%	31%	–	–	CC(=O)OCC(=O)N1CCC(Nc2nc(N)c(C(=O)c3c(F)cccc3F)s2)CC1 [Example Q76]	4%	36%	–	–
39%	46%	–	–	COc1ccc(OC)c(CC(=O)N2CCC(Nc3nc(N)c(C(=O)c4c(F)cccc4F)s3)CC2)c1 [Example Q78]	0.43%	37%	–	–
51%	59%	–	–	COc1cccc(CC(=O)N2CCC(Nc3nc(N)c(C(=O)c4c(F)cccc4F)s3)CC2)c1 [Example Q79]	5%	33%	–	–

From patent US20050101595A1, “N-containing cycloalkyl-substituted amino-thiazole derivatives and pharmaceutical compositions for inhibiting cell proliferation and methods for their use” (PFIZER INC., priority 2003, published 2005)
